Measured values from ChEMBL document CHEMBL6153141, “Design, Synthesis, and Mechanism Study of Novel BMX Inhibitors Based on the Core of 1,3,5-Triazin-2-Amine for the Treatment of Gastric Carcinoma” (J Med Chem, 2025).
The source made the active and inactive calls. The rule behind the calls is not given here.

Experiments:
[1] = test system: HeLa; test: Anticancer activity against human HeLa cells assessed as inhibition of cell proliferation incubated for 72 hrs by MTT assay; assay type: functional, cell-based
[2] = Oral bioavailability in Sprague-Dawley rat at 5 mg/kg measured after 24 hrs by LC-MS/MS analysis; assay type: ADME, organism-based; settings: in vivo
[3] = target: Cytochrome P450 1A2 (Homo sapiens, UniProt P05177); test: Inhibition of CYP1A2 in human liver microsomes using phenacetin as substrate preincubated for 5 mins followed by NADPH addition and measured after 10 mins by LC-MS/MS analysis; assay type: ADME, Microsome
Cytochrome P450 1A2, sequence (P05177 whole entry): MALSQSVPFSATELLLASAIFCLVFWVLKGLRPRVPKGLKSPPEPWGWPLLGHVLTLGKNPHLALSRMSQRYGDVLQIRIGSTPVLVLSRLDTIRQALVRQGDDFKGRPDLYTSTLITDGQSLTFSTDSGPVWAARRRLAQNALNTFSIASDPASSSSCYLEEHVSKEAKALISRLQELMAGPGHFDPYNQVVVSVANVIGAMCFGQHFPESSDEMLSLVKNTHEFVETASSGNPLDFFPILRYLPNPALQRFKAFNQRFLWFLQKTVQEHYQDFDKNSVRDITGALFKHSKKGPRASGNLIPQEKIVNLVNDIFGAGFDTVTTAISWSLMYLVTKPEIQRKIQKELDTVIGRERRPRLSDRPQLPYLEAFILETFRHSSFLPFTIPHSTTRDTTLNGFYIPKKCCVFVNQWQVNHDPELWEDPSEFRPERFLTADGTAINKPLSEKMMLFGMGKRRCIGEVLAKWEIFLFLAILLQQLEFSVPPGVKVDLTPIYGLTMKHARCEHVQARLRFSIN

[4] = test system: HepG2; test: Anticancer activity against human HepG2 cells assessed as inhibition of cell proliferation incubated for 72 hrs by MTT assay; assay type: functional, cell-based; settings: HepG2, 72 h
[5] = test system: MGC-803; test: Inhibition of AKT-mTOR signaling in human […] cells assessed as decrease in phosphorylated mTOR expression at 10 to 20 uM incubated for 48 hrs by Western blot analysis; assay type: cell-based; settings: dose 10-20 µM
[6] = test system: MGC-803; test: Anti-invasive activity in human MGC-803 cells assessed as decrease in invasion ability at 10 to 20 uM incubated for 48 hrs by transwell assay; assay type: functional, cell-based; settings: dose 10-20 µM
[7] = test system: HGC-27; test: Anti-invasive activity in human HGC-27 cells assessed as decrease in invasion ability at 5 to 15 uM incubated for 48 hrs by transwell assay; assay type: functional, cell-based; settings: dose 5-15 µM
[8] = test system: HGC-27; test: Anticancer activity against human HGC-27 cells assessed as inhibition of cell proliferation incubated for 72 hrs by MTT assay; assay type: functional, cell-based; settings: HGC-27, 72 h
[9] = target: Cytochrome P450 2C9 (Homo sapiens, UniProt P11712); test: Inhibition of CYP2C9 in human liver microsomes using tolbutamide as substrate preincubated for 5 mins followed by NADPH addition and measured after 10 mins by LC-MS/MS analysis; assay type: ADME, Microsome
Cytochrome P450 2C9, sequence (P11712 whole entry): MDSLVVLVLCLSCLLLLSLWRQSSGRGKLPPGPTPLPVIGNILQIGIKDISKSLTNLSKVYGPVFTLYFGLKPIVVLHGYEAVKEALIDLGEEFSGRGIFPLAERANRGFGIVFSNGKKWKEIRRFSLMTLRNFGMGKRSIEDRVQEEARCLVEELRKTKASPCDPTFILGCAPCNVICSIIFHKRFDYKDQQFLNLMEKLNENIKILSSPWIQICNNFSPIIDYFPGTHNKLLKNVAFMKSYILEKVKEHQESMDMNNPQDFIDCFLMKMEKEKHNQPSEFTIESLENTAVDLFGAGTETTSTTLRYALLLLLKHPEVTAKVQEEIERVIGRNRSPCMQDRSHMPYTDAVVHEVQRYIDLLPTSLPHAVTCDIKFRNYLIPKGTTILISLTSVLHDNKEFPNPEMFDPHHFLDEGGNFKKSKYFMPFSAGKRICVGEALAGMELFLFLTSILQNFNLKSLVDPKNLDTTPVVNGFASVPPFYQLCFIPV

[10] = test system: NCI-H1975; test: cells; settings: Homo sapiens, NCI-H1975, 72 h
Description: Anticancer activity against human NCI-H1975 cells assessed as inhibition of cell proliferation incubated for 72 hrs by MTT assay

[11] = target: Receptor tyrosine-protein kinase erbB-4 (Homo sapiens, UniProt Q15303); test: Inhibition of HER4 (unknown origin) in presence of ATP at Km concentration
Receptor tyrosine-protein kinase erbB-4, sequence (Q15303 whole entry): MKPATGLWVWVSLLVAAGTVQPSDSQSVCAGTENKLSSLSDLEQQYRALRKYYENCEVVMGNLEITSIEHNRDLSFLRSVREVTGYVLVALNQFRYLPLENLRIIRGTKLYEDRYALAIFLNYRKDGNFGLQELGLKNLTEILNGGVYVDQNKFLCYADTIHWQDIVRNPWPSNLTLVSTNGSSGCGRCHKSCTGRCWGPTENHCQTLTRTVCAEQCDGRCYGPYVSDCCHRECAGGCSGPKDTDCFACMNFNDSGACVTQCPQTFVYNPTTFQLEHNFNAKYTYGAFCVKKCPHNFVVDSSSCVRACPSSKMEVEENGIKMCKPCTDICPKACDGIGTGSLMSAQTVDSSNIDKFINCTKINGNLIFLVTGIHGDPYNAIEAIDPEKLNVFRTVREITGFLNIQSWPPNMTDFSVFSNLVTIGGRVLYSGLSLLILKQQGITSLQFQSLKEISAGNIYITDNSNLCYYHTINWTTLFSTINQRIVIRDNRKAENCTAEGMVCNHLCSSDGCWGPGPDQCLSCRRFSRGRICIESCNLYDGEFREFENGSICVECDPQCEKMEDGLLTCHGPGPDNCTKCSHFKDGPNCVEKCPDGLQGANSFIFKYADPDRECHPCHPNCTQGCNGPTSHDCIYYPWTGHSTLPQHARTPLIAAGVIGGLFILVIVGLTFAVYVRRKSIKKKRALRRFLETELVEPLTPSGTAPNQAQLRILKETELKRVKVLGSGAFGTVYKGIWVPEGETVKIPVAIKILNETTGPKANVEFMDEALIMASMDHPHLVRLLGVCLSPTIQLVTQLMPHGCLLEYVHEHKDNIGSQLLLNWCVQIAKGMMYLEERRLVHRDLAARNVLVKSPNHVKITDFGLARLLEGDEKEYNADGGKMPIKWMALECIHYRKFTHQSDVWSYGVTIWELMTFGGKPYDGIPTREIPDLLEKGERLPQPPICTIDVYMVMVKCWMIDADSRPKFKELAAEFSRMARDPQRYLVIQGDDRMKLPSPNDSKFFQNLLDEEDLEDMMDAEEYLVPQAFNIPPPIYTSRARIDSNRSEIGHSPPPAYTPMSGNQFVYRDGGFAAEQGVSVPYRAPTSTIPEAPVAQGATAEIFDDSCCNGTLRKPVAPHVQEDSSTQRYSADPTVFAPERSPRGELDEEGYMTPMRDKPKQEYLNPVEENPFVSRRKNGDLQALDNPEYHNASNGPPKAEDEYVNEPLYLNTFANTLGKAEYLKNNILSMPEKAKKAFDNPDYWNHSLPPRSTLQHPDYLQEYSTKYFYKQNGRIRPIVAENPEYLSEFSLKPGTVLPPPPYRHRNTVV

[12] = test system: HGC-27; test: Antiproliferative activity against human HGC-27 cells assessed as reduction in number of EdU-positive cells incubated for 48 hrs by confocal laser scanning microscopic analysis; assay type: functional, cell-based; settings: dose 5-15 µM
[13] = test system: AGS; test: Anticancer activity against human AGS cells assessed as inhibition of cell proliferation incubated for 72 hrs by MTT assay; assay type: functional, cell-based
[14] = test system: MGC-803; test: Inhibition of AKT-mTOR signaling in human […] cells assessed as decrease in phosphorylated AKT expression at 10 to 20 uM incubated for 48 hrs by Western blot analysis; assay type: cell-based; settings: dose 10-20 µM
[15] = target: Tyrosine-protein kinase ITK/TSK (Homo sapiens, UniProt Q08881); test: Inhibition of ITK (unknown origin) in presence of ATP at Km concentration
Tyrosine-protein kinase ITK/TSK, sequence (Q08881 whole entry): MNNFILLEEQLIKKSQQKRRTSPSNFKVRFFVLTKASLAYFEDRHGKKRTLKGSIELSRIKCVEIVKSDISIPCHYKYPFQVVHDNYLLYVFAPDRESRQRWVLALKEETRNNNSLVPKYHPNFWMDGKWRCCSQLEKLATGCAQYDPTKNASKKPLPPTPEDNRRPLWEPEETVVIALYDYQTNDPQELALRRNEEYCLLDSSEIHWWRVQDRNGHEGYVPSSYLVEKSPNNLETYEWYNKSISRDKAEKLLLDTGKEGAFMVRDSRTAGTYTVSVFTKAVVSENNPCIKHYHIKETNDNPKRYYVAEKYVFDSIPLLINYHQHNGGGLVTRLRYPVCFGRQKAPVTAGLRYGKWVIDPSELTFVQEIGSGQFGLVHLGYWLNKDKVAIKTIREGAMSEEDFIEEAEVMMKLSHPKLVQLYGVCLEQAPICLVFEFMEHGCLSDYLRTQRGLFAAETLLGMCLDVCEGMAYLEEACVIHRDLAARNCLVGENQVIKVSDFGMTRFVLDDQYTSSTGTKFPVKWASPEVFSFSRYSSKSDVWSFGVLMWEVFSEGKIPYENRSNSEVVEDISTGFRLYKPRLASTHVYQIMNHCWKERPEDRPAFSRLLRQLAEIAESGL

[16] = test system: MGC-803; test: Effect on mTOR expression in human MGC-803 cells at 10 to 20 uM incubated for 48 hrs by Western blot analysis; assay type: functional, cell-based; settings: dose 10-20 µM
[17] = test system: HGC-27; test: Induction of apoptosis in human HGC-27 cells assessed as increase in cleaved caspase 3 level incubated for 48 hrs by Western blot analysis; assay type: functional, cell-based; settings: dose 5-15 µM
[18] = test system: MGC-803; test: Downregulation of BMX protein expression in human MGC-803 cells incubated for 48 hrs by Western blot analysis; assay type: functional, cell-based; settings: dose 10-20 µM
[19] = Toxicity in female BALB/c nude mouse model xenografted with human HGC-27 cells assessed as effect on kidney at 30 mg/kg, ip administered for 21 days by H and E staining based analysis; assay type: organism-based; settings: in vivo, 504 h, time 21 day
[20] = test system: MGC-803; test: cells; settings: Homo sapiens, MGC-803, 48 h
Description: Antiproliferative activity against human MGC-803 cells assessed as inhibition of cell viability incubated for 48 hrs by MTT assay

[21] = test system: HGC-27; test: Effect on mTOR expression in human HGC-27 cells at 5 to 15 uM incubated for 48 hrs by Western blot analysis; assay type: functional, cell-based; settings: dose 5-15 µM
[22] = test system: HGC-27; test: Antiproliferative activity against human HGC-27 cells assessed as inhibition of cell viability incubated for 24 to 72 hrs by MTT assay; assay type: functional, cell-based; settings: dose <= 50.0 µM, time 24-72 hrs
[23] = test system: PC-9; test: cells; settings: Homo sapiens, PC-9, 72 h
Description: Anticancer activity against human PC-9 cells assessed as inhibition of cell proliferation incubated for 72 hrs by MTT assay

[24] = test system: MDA-MB-231; test: Anticancer activity against human MDA-MB-231 cells assessed as inhibition of cell proliferation incubated for 72 hrs by MTT assay; assay type: functional, cell-based; settings: MDA-MB-231, 72 h
[25] = test system: HGC-27; test: Induction of autophagy in human HGC-27 cells assessed as decrease in p62 protein expression incubated for 48 hrs by Western blot analysis; assay type: functional, cell-based; settings: dose 5-15 µM
[26] = Cytotoxicity against human L02 cells assessed as inhibition of cell proliferation incubated for 72 hrs by MTT assay; assay type: toxicity, cell-based
[27] = target: Cytochrome P450 2D6 (Homo sapiens, UniProt P10635); test: Inhibition of CYP2D6 in human liver microsomes using dextromethorphan as substrate preincubated for 5 mins followed by NADPH addition and measured after 10 mins by LC-MS/MS analysis; assay type: ADME, Microsome
Cytochrome P450 2D6, sequence (P10635 whole entry): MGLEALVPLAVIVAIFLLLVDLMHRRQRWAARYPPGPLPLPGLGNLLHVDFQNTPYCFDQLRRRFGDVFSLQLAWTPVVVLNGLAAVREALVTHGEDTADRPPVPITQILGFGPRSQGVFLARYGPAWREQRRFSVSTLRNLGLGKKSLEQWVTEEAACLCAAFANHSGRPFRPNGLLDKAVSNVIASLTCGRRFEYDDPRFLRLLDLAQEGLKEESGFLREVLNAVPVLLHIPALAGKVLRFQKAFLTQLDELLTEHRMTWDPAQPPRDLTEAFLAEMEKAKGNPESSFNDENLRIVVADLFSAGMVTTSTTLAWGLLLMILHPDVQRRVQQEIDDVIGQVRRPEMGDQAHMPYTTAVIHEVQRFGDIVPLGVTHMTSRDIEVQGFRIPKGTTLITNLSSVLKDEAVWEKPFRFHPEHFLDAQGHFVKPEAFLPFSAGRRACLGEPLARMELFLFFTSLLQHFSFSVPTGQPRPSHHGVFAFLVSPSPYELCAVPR

[28] = test system: NCI-H460; test: cells; settings: Homo sapiens, NCI-H460, 72 h
Description: Anticancer activity against human NCI-H460 cells assessed as inhibition of cell proliferation incubated for 72 hrs by MTT assay

[29] = Metabolic stability in human liver microsomes assessed as intrinsic clearance at 100 uM measured upto 60 mins in presence of NADPH by LC-MS/MS analysis; assay type: ADME, Microsome; settings: read-out: CLH
[30] = test system: HGC-27; test: Induction of apoptosis in LC3B knockout human HGC-27 cells assessed as increase in cleaved caspase 9 level at 15 uM by Western blot analysis; assay type: functional, cell-based
[31] = test system: MGC-803; test: Induction of apoptosis in human MGC-803 cells assessed as increase in cleaved PARP level incubated for 48 hrs by Western blot analysis; assay type: functional, cell-based; settings: dose 10-20 µM
[32] = Toxicity in female BALB/c nude mouse model xenografted with human HGC-27 cells assessed as body weight loss at 30 mg/kg, ip administered for 21 days; assay type: organism-based; settings: in vivo, 504 h, time 21 day
[33] = Cytotoxicity against HEK293 cells assessed as inhibition of cell proliferation incubated for 72 hrs by MTT assay; assay type: toxicity, cell-based; settings: human
[34] = test system: HGC-27; test: Cell cycle arrest in human HGC-27 cells assessed as accumulation of cells at G1 phase at 5 to 15 uM incubated for 48 hrs by flow cytometric analysis; assay type: functional, cell-based; settings: dose 5-15 µM
[35] = test system: HGC-27; test: Induction of apoptosis in human HGC-27 cells assessed as increase in cleaved caspase 9 level incubated for 48 hrs by Western blot analysis; assay type: functional, cell-based; settings: dose 5-15 µM
[36] = test system: HGC-27; test: Induction of apoptosis in LC3B knockout human HGC-27 cells assessed as increase in cleaved PARP level at 15 uM by Western blot analysis; assay type: functional, cell-based
[37] = test system: MGC-803; test: Induction of apoptosis in human MGC-803 cells assessed as increase in cleaved caspase 3 level incubated for 48 hrs by Western blot analysis; assay type: functional, cell-based; settings: dose 10-20 µM
[38] = Cytotoxicity against human GES1 cells assessed as inhibition of cell proliferation incubated for 72 hrs by MTT assay; assay type: toxicity, cell-based
[39] = target: Cytochrome P450 2C19 (Homo sapiens, UniProt P33261); test: Inhibition of CYP2C19 in human liver microsomes using omeprazole as substrate preincubated for 5 mins followed by NADPH addition and measured after 10 mins by LC-MS/MS analysis; assay type: ADME, Microsome
Cytochrome P450 2C19, sequence (P33261 whole entry): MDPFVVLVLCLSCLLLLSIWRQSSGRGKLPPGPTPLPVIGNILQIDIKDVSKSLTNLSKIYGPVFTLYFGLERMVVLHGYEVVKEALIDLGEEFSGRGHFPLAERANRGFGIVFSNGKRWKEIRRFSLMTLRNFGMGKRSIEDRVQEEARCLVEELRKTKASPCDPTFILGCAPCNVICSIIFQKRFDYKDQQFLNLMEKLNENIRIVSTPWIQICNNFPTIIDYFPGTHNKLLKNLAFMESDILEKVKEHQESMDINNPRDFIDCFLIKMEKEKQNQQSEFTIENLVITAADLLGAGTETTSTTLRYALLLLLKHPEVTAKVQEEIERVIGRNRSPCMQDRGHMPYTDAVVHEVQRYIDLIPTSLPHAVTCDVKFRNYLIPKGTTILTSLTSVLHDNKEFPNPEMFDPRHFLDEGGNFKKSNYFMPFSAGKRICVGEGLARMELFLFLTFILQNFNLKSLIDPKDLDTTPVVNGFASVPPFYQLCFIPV

[40] = test system: CWR22R; test: cells; settings: Homo sapiens, 22Rv1, 72 h
Description: Anticancer activity against human 22Rv1 cells assessed as inhibition of cell proliferation incubated for 72 hrs by MTT assay

Structure (SMILES): C=CS(=O)(=O)N1CCC[C@@H](Nc2nc(N)nc(Nc3cccc(Oc4ccccc4)c3)n2)C1
- IC50 [1]: 6.5 µM
- bioavailability [2]: 6.6%
- IC50 [3]: > 100 µM
- IC50 [4]: > 32 µM
- inhibition [5]: Active
- Activity [6]: Active
- Activity [7]: Active
- IC50 [8]: 9.6 µM
- IC50 [9]: 16.8 µM
- IC50 [10]: 5 µM
- IC50 [11]: > 1 µM
- Activity [12]: Dose-dependent-effect
- IC50 [13]: 8 µM
- inhibition [14]: Active
- IC50 [15]: > 1 µM
- Activity [16]: inactive
- Activity [17]: Dose-dependent-effect
- Activity [18]: Dose-dependent-effect
- Activity [19]: Non-toxic
- IC50 [20]: 15.2 µM
- Activity [21]: inactive
- Activity [22]: Dose-dependent-effect
- IC50 [23]: 23.3 µM
- IC50 [24]: 19.7 µM
- Activity [25]: Dose-dependent-effect
- IC50 at 72 h [26]: > 32 µM
- IC50 [27]: 82 µM
- IC50 [28]: 16.7 µM
- microsomal CLint at 100 µM [29]: 214 µL/min/mg
- Activity [30]: Active
- Activity [31]: Dose-dependent-effect
- Activity [32]: Non-toxic
- IC50 at 72 h [33]: > 32 µM
- Activity [34]: Active
- Activity [35]: Dose-dependent-effect
- Activity [36]: Active
- Activity [37]: Dose-dependent-effect
- IC50 at 72 h [38]: 21.2 µM
- IC50 [39]: > 100 µM
- IC50 [40]: 13.4 µM
